# pIC50, pKi: −log10 of the molar value. Read-outs that look alike come from different tables or passages of the source.
# Assays:
# [1] = target: T1, DCN1 (DCUND1) protein PONY domain (Homo sapiens (Human), UniProt Q96GG9); experiment: TR-FRET assay (binding to DCN-1, displacement of FAM-labeled probe); conditions: for IC50: TR FRET IC50 1 hr (nM)
# Summary of the method: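 Compounds read at 1, 5 and 24 h, 0.1% final DMSO, by TR-FRET between terbium-streptavidin on biotinylated DCN1 PONY domain (E. coli) and a FAM-tagged non-covalent inhibitor probe. Two setups used, 5 nM protein with 20 nM labelled probe, or 0.31 nM protein with 100 nM labelled plus 800 nM unlabelled probe; buffer had TritonX and 200 mM NaCl. % activity relative to high (with probe) and low (without probe) controls.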
# [2] = target: T1, DCN1 (DCUND1) protein PONY domain; experiment: Off-rate measurement of reversible covalent molecules (jump dilution TR-FRET with Cy5 probe); conditions: binding mode from off-rate measurement
# Method: A TR-FRET assay was performed to classify the compounds as an irreversible covalent binder, a reversible covalent binder or a reversible binder.
# An assay to measure the off-rate of reversible covalent molecules was developed. A typical covalent compound is assumed to stay bound to a protein for at least the life of that protein in the cell. In reality, there is a range of how long a covalent compounds remains bound before a reverse reaction takes place. Thus, some covalent bonds can be labeled as reversible as their reverse reaction takes place in a measurable amount of time under physiological conditions. The assay capitalizes on the range of covalent binders by using a high affinity covalent binder as a probe to displace the more reversible binders in an adaptation of the jump dilution method.
# In this version of the jump dilution method, the increase in covalent probe binding over time was measured through a TR-FRET reaction between the covalent probe and the biotinylated target protein.
# The recombinant form of the DCN1 (DCUND1) protein PONY domain was produced using an E. coli expression system at Viva Biotech (China). The DCN1 protein was biotinylated (EZ sulfo-NHS-LC-biotin; Thermofisher) for labeling with streptavidin terbium (Tb) cryptate in the reaction. This biotinylated protein was used in two forms of the TR-FRET assay as described below.
# The off-rate measurement is executed in two steps based on the jump dilution method. […] The greatest dilution allowed within the constraints of the assay was chosen. These factors allow a competitive advantage for the covalent probe to replace the test compound when that compound releases from the target protein. The actual measure is the rate of increased TR-FRET signal as the covalent probe replaces the test compound over time. […] The resulting time dependent curve of the TR-FRET signal is fit to the following equation: Y=Y0+(Plateau−Y0)*(1−exp(−K*x))
# K is the rate constant (1/unit of time). The residence time is defined as the inverse of K, the rate constant. The half-life is calculated as ln(2)/K.
# [3] = target: DCN2 (DCUND2) protein PONY domain (Homo sapiens (Human), UniProt Q6PH85); experiment: DCN2 TR-FRET assay, measurement of Kinact/KI; format: binding
# Chain of DCN2 (DCUND2) protein PONY domain (Q6PH85 60-248): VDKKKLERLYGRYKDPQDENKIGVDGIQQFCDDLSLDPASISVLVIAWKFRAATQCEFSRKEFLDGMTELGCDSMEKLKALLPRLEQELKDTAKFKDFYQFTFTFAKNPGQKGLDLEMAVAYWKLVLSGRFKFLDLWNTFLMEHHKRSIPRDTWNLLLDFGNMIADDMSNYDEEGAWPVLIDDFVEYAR
# Method: A TR-FRET Assay was performed to evaluate the ability of the compounds to bind DCN-2. The time resolved—Forster's resonance energy transfer (TR-FRET) assay was designed following the protocol established in (Scott et al., Nat Chem Biol. 2017 August; 13(8): 850-857). A recombinant form of the DCN2 (DCUND2) protein PONY domain was produced using an E. coli expression system at Viva Biotech China. The DCN2 protein was biotinylated (EZ sulfo-NHS-LC-biotin; Thermofisher) for labeling with 2.5 nM streptavidin terbium (Tb) cryptate in the reaction. The probe was changed to a non-covalent DCN1 inhibitor labeled with carboxyfluorescein (FAM; Zhou el al., Nat Commun. 2017; 8: 1150). Buffer conditions were modified to enhance protein stability by replacing TritonX with 0.05% Tween20 and increasing NaCl to 200 mM. […] The Kinact and KI measurements were taken to allow for continuous reads over 24 hrs. Plates were read every 5 min up to 1 hr, every 15 min up to 5 hr, and every hour up to 10 hours. Kinact and KI were calculated based on the following equations (Krippendorff B F, et al. Mechanism-based inhibition: deriving K(I) and k(inact) directly from time-dependent IC(50) values. J BiomolScreen. 2009; Mons E et al. A Comprehensive Guide for Assessing Covalent Inhibition in Enzymatic Assays Illustrated with Kinetic Simulations. […] The Kinact and KI values could be estimated from the tight curves of the IC50 values over time. [formula]
# [4] = system: Cullin-3 (CUL3) neddylation; conditions: positive control, 1 μM; Zhou et al. Nature Comm. 2021; cited from earlier work
# DCN1 protein = DCN1 protein (Homo sapiens (Human), UniProt Q96GG9); experiment: Intact protein MS analysis with the RapidFire-TOF system (covalent adduct formation); format: binding; conditions: 400 nM DCN1, incubated at room temperature for 3 hours
# Chain of DCN1 protein (Q96GG9 whole entry): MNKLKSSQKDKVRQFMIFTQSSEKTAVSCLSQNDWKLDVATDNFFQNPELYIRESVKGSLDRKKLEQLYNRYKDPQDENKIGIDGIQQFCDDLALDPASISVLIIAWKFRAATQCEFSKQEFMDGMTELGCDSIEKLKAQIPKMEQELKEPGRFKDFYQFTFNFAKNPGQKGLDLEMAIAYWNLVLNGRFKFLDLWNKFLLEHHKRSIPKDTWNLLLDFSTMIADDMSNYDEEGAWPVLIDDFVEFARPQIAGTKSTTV
# Summary of the method: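 Tag-free His-TEV-DCN1 expressed in E. coli at 400 nM in 25 mM Tris-HCl, 200 mM NaCl, 1 mM DTT, incubated with 11 compound concentrations at room temperature for 3 h unless otherwise specified. Quenched with 0.2% formic acid; intact-protein RapidFire Q-TOF MS, deconvoluted to detect parent and compound-adduct masses.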
# [5] = 24 hr after treatment with compound, read-out: TR FRET IC50 24 hr
# [6] = read-out: TR FRET IC50 1 hr, 1 hr after treatment with compound
# [7] = 1 hr after treatment with compound
# T1 sequence (Q96GG9 60-248): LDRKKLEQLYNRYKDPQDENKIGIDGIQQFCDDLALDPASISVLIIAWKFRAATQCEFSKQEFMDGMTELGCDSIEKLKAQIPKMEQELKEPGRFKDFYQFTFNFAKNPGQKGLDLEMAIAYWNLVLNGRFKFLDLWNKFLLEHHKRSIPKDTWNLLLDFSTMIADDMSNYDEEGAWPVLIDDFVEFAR
SMILES,"pIC50 [1, 5]","pIC50 [1, 6]",Category [2],pKi [3],kinact [3],kinact/KI [3],"IC50 [1, 7]",effect on CUL3 neddylation [4],Emax (DCN1 protein)
C=C(C(=O)NCc1cccc([C@@H]2c3cnn(-c4ccccc4)c3N(CC)C(=O)[C@H]2NC(=O)c2nccc(C(F)(F)F)n2)c1)[C@@H](C)N(C)C1COC1 [Compound I-300],≥ 6.70,≥ 6.70,irreversible,–,–,–,–,–,–
C=C(C(=O)NCc1cccc([C@@H]2c3cnn(-c4ccccc4)c3N(CC)C(=O)[C@H]2NC(=O)c2csc(C(F)(F)F)n2)c1)C(C)N(C)C1COC1 (stereo partly shown) [Compound I-305],≥ 6.70,≥ 6.70,irreversible,< 9.30,0.005 to 0.00833 s⁻¹,167000 to 3.33e+06 M⁻¹ s⁻¹,–,–,–
"C/C=C(\CN1CCN(C2COC2)CC1)C(=O)Nc1cccc([C@@H]2c3cnn(-c4ccccc4)c3N(CC)C(=O)[C@H]2NC(=O)c2ccn(C(F)(F)F)n2)c1 [Compound I-383, N-((4R,5S)-7-ethyl-4-(3-((E)-2-((4-(oxetan-3-yl)piperazin-1-yl)methyl)but-2-enamido)phenyl)-6-oxo-1-phenyl-4,5,6,7-tetrahydro-1H-pyrazolo[3,4-b]pyridin-5-yl)-1-(trifluoromethyl)-1H-pyrazole-3-carboxamide]",≥ 6.70,–,irreversible,< 9.30,0.00333 to 0.005 s⁻¹,167000 to 3.33e+06 M⁻¹ s⁻¹,≤ 200 nM,–,–
"C=C(CN1CCOCC1)C(=O)NC[C@@H](NC(=O)[C@H](Cc1nc2ccc(C(C)C)cc2s1)NC(=O)CC)C1CCCCC1 [Compound C1, reference compound]",–,–,–,9.30 to 9.70,0.005 to 0.00833 s⁻¹,8.33e+06 to 1.67e+07 M⁻¹ s⁻¹,–,–,–
C=C(CN1CCOCC1)C(=O)NC[C@@H](NC(=O)[C@H](Cc1nc2ccc(C(C)C)cc2s1)NC(=O)CC)C1CCCCC1 [DI-1548],–,–,–,–,–,–,–,reduce CUL3 neddylation,–
"CCN1C(=O)[C@H](NC(=O)c2cccc(C(F)(F)F)c2)[C@@H](c2cccc(NC(=O)/C(C#N)=C/C3CC3)c2)c2c(C)nn(-c3ccccc3)c21 (racemic) [Compound I-68, rac-N-((4R,5S)-4-(3-((E)-2-cyano-3-cyclopropylacrylamido)phenyl)-7-ethyl-3-methyl-6-oxo-1-phenyl-4,5,6,7-tetrahydro-1H-pyrazolo[3,4-b]pyridin-5-yl)-3-(trifluoromethyl)benzamide]",6.00 to 6.70,–,–,–,–,–,≤ 200 nM,–,80 to 100%
C=C(CN1CCN(C2COC2)CC1)C(=O)NCc1cccc([C@@H]2c3cnn(-c4ccccc4)c3N(CC)C(=O)[C@H]2NC(=O)c2cccc(C(F)(F)F)c2)c1 [Compound I-4],≥ 6.70,≥ 6.70,–,–,–,–,–,–,80 to 100%
C=C(CN(C)C)C(=O)Nc1cccc([C@H]2c3c(C)nn(-c4ccccc4)c3N(CC)C(=O)[C@@H]2NC(=O)c2cccc(C(F)(F)F)c2)c1 (racemic) [Compound I-146],≥ 6.70,≥ 6.70,–,–,–,–,–,–,80 to 100%
"CCN1C(=O)[C@H](NC(=O)c2cccc(C(F)(F)F)c2)[C@@H](c2cccc(N3CC=CS3(=O)=O)c2)c2c(C)nn(-c3ccccc3)c21 (racemic) [Compound I-130, rac-N-((4R,5S)-4-(3-(1,1-dioxidoisothiazol-2 (3H)-yl)phenyl)-7-ethyl-3-methyl-6-oxo-1-phenyl-4,5,6,7-tetrahydro-1H-pyrazolo[3,4-b]pyridin-5-yl)-3-(trifluoromethyl)benzamide]",6.00 to 6.70,–,–,–,–,–,> 3000 nM,–,0 to 30%
C=C(CN1CCOCC1)C(=O)NCc1cccc([C@@H]2c3cnn(-c4ccccc4)c3N(CC)C(=O)[C@H]2NC(=O)c2ccnn2C(F)(F)F)c1 [Compound I-86],5.52 to 6.00,–,–,–,–,–,1000 to 3000 nM,–,0 to 30%
CC#CC(=O)Nc1ccccc1[C@H]1c2cnn(-c3ccccc3)c2N(CC)C(=O)[C@@H]1NC(=O)c1cccc(C(F)(F)F)c1 (racemic) [Compound I-159],< 5.52,–,–,–,–,–,> 3000 nM,–,0 to 30%
C=C(CN1CCOCC1)C(=O)NCc1cccc([C@@H]2c3cnn(-c4ccccc4)c3N(CC)C(=O)[C@H]2NC(=O)c2cccc(C(F)(F)F)c2)c1 [Compound I-62],≥ 6.70,≥ 6.70,–,–,–,–,–,–,80 to 100%
C=C(CN1CCN(C2COC2)CC1)C(=O)N(C)Cc1cccc([C@@H]2c3cnn(-c4ccccc4)c3N(CC)C(=O)[C@H]2NC(=O)c2cccc(C(F)(F)F)c2)c1 [Compound I-218],≥ 6.70,–,–,–,–,–,≤ 200 nM,–,80 to 100%
C/C=C(\CN1CCOCC1)C(=O)Nc1cccc([C@@H]2c3c(C)nn(-c4ccccc4)c3N(CC)C(=O)[C@H]2NC(=O)c2cccc(C(F)(F)F)c2)c1 (racemic) [Compound I-142],≥ 6.70,–,–,–,–,–,≤ 200 nM,–,80 to 100%
CCN1C(=O)[C@@H](NC(=O)c2cccc(C(F)(F)F)c2)[C@@H](c2cccc(NC(=O)/C=C/C(F)(F)F)c2)c2c(C)nn(-c3ccccc3)c21 (racemic) [Compound I-27],< 5.52,–,–,–,–,–,> 3000 nM,–,0 to 30%
CCN1C(=O)[C@H](NC(=O)c2cccc(C(F)(F)F)c2)[C@@H](c2cccc(NC(=O)CC#N)c2)c2c(C)nn(-c3ccccc3)c21 (racemic) [Compound I-103],5.52 to 6.00,–,–,–,–,–,1000 to 3000 nM,–,0 to 30%
"CCN1C(=O)[C@H](NC(=O)c2cccc(C(F)(F)F)c2)[C@@H](c2cccc(NC(=O)C#CCN(C)C)c2)c2c(C)nn(-c3ccccc3)c21 (racemic) [Compound I-133, rac-N-((4R,5S)-4-(3-(4-(dimethylamino)but-2-ynamido)phenyl)-7-ethyl-3-methyl-6-oxo-1-phenyl-4,5,6,7-tetrahydro-1H-pyrazolo[3,4-b]pyridin-5-yl)-3-(trifluoromethyl)benzamide]",≥ 6.70,–,–,–,–,–,≤ 200 nM,–,80 to 100%
C=CC(=O)Nc1cccc([C@H]2c3c(C)nn(-c4ccccc4)c3N(CC)C(=O)[C@H]2NC(=O)c2cccc(C(F)(F)F)c2)c1 (racemic) [Compound I-25],< 5.52,–,–,–,–,–,> 3000 nM,–,0 to 30%
"CCN1C(=O)[C@H](NC(=O)c2cccc(C(F)(F)F)c2)[C@@H](c2cccc(NC(=O)/C(C#N)=C/C(C)C)c2)c2c(C)nn(-c3ccccc3)c21 (racemic) [Compound I-46, rac-N-((4R,5S)-4-(3-((E)-2-cyano-4-methylpent-2-enamido)phenyl)-7-ethyl-3-methyl-6-oxo-1-phenyl-4,5,6,7-tetrahydro-1H-pyrazolo[3,4-b]pyridin-5-yl)-3-(trifluoromethyl)benzamide]",≥ 6.70,–,–,–,–,–,≤ 200 nM,–,80 to 100%

# From patent US12435087B2, “Modulators of DCN-1 and methods of use thereof” (Cellarity, Inc., priority 2023, dated 2025)
